Data as given in PubChem BioAssay (NCI).
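Each compound was tested at five concentrations against cells in 96-well plates for 48 hours. TGI: total growth inhibition.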

What was measured:
Assay in all cases: NCI tumour cell line growth inhibition, 48 h
786-0 renal = tested on: 786-0 renal
A498 renal = tested on: A498 renal
A549 NSCLC = tested on: A549 NSCLC
ACHN renal = tested on: ACHN renal
BT-549 breast = tested on: BT-549 breast
CAKI-1 renal = tested on: CAKI-1 renal
CCRF-CEM leukemia = tested on: CCRF-CEM leukemia
COLO 205 colon = tested on: COLO 205 colon
DU-145 prostate = tested on: DU-145 prostate
EKVX NSCLC = tested on: EKVX NSCLC
HCC-2998 colon = tested on: HCC-2998 colon
HCT-116 colon = tested on: HCT-116 colon
HCT-15 colon = tested on: HCT-15 colon
HL-60(TB) leukemia = tested on: HL-60(TB) leukemia
HOP-62 NSCLC = tested on: HOP-62 NSCLC
HS 578T breast = tested on: HS 578T breast
HT29 colon = tested on: HT29 colon
IGROV1 ovarian = tested on: IGROV1 ovarian
K-562 leukemia = tested on: K-562 leukemia
KM12 colon = tested on: KM12 colon
LOX IMVI melanoma = tested on: LOX IMVI melanoma
M14 melanoma = tested on: M14 melanoma
MALME-3M melanoma = tested on: MALME-3M melanoma
MCF7 breast = tested on: MCF7 breast
MDA-MB-231 breast = tested on: MDA-MB-231 breast
MDA-MB-435 = tested on: MDA-MB-435
MDA-N = tested on: MDA-N
MOLT-4 leukemia = tested on: MOLT-4 leukemia
NCI-H226 lung = tested on: NCI-H226 lung
NCI-H23 lung = tested on: NCI-H23 lung
NCI-H460 lung = tested on: NCI-H460 lung
NCI-H522 lung = tested on: NCI-H522 lung
NCI/ADR-RES ovarian = tested on: NCI/ADR-RES ovarian
OVCAR-3 ovarian = tested on: OVCAR-3 ovarian
OVCAR-4 ovarian = tested on: OVCAR-4 ovarian
OVCAR-5 ovarian = tested on: OVCAR-5 ovarian
OVCAR-8 ovarian = tested on: OVCAR-8 ovarian
PC-3 prostate = tested on: PC-3 prostate
RPMI-8226 leukemia = tested on: RPMI-8226 leukemia
RXF 393 renal = tested on: RXF 393 renal
SF-268 CNS = tested on: SF-268 CNS
SF-295 CNS = tested on: SF-295 CNS
SF-539 CNS = tested on: SF-539 CNS
SK-MEL-2 melanoma = tested on: SK-MEL-2 melanoma
SK-MEL-28 melanoma = tested on: SK-MEL-28 melanoma
SK-MEL-5 melanoma = tested on: SK-MEL-5 melanoma
SK-OV-3 ovarian = tested on: SK-OV-3 ovarian
SN12C renal = tested on: SN12C renal
SNB-19 CNS = tested on: SNB-19 CNS
SNB-75 CNS = tested on: SNB-75 CNS
SR leukemia = tested on: SR leukemia
SW-620 colon = tested on: SW-620 colon
T-47D breast = tested on: T-47D breast
TK-10 renal = tested on: TK-10 renal
U251 CNS = tested on: U251 CNS
UACC-257 melanoma = tested on: UACC-257 melanoma
UACC-62 melanoma = tested on: UACC-62 melanoma
UO-31 renal = tested on: UO-31 renal
HOP-92 NSCLC = tested on: HOP-92 NSCLC

Measured: TGI

O=C(CCc1ccccc1)n1cccc1CO
> 100 µM: 786-0 renal | A498 renal | A549 NSCLC | ACHN renal | BT-549 breast | CAKI-1 renal | CCRF-CEM leukemia | COLO 205 colon | DU-145 prostate | EKVX NSCLC | HCC-2998 colon | HCT-116 colon | HCT-15 colon | HL-60(TB) leukemia | HOP-62 NSCLC | HS 578T breast | HT29 colon | IGROV1 ovarian | K-562 leukemia | KM12 colon | LOX IMVI melanoma | M14 melanoma | MALME-3M melanoma | MCF7 breast | MDA-MB-231 breast | MDA-MB-435 | MDA-N | MOLT-4 leukemia | NCI-H226 lung | NCI-H23 lung | NCI-H460 lung | NCI-H522 lung | NCI/ADR-RES ovarian | OVCAR-3 ovarian | OVCAR-4 ovarian | OVCAR-5 ovarian | OVCAR-8 ovarian | PC-3 prostate | RPMI-8226 leukemia | RXF 393 renal | SF-268 CNS | SF-295 CNS | SF-539 CNS | SK-MEL-2 melanoma | SK-MEL-28 melanoma | SK-MEL-5 melanoma | SK-OV-3 ovarian | SN12C renal | SNB-19 CNS | SNB-75 CNS | SR leukemia | SW-620 colon | T-47D breast | TK-10 renal | U251 CNS | UACC-257 melanoma | UACC-62 melanoma | UO-31 renal

O=C1NC(N2CCCCC2)=N/C1=C\c1ccc(Cl)cc1
96.1 µM: NCI-H226 lung
35.7 µM: HT29 colon
92.7 µM: HCT-116 colon
64.8 µM: OVCAR-8 ovarian
85.5 µM: HOP-92 NSCLC
> 100 µM: A549 NSCLC | ACHN renal | BT-549 breast | CAKI-1 renal | CCRF-CEM leukemia | COLO 205 colon | DU-145 prostate | EKVX NSCLC | HCT-15 colon | HL-60(TB) leukemia | HOP-62 NSCLC | HS 578T breast | IGROV1 ovarian | KM12 colon | LOX IMVI melanoma | M14 melanoma | MALME-3M melanoma | MCF7 breast | MDA-MB-231 breast | MDA-MB-435 | MDA-N | MOLT-4 leukemia | NCI-H23 lung | NCI-H522 lung | NCI/ADR-RES ovarian | OVCAR-3 ovarian | OVCAR-4 ovarian | OVCAR-5 ovarian | PC-3 prostate | RPMI-8226 leukemia | RXF 393 renal | SF-268 CNS | SF-295 CNS | SF-539 CNS | SK-MEL-2 melanoma | SK-MEL-28 melanoma | SK-MEL-5 melanoma | SK-OV-3 ovarian | SN12C renal | SNB-19 CNS | SR leukemia | SW-620 colon | T-47D breast | TK-10 renal | U251 CNS | UACC-257 melanoma | UACC-62 melanoma | UO-31 renal
79.9 µM: 786-0 renal
60.5 µM: HCC-2998 colon
